In patent publication US20250042889A1, “3CLPRO PROTEASE INHIBITOR” (SHANGHAI QILU PHARMACEUTICAL RESEARCH AND DEVELOPMENT …, priority 2021, published 2025):

Molecular target: SARS-COV-2 3CLpro/Mpro protease (Severe acute respiratory syndrome coronavirus 2 (2019-nCoV) (SARS-CoV-2), UniProt P0DTD1)
Assay: Inhibitory effect on SARS-COV-2 3CLpro/Mpro protease by fluorescence resonance energy transfer
Format: biochemical
Details: activity intervals A-D, read-out: IC50 (nM), Inhibition on SARS-CoV-2 3CLpro/Mpro protease

| SMILES | IC50 |
| --- | --- |
| C[C@@H]1CN(C(=O)c2cc(Br)cc([N+](=O)[O-])c2N[C@@H]2CCOC[C@@H]2NC(=O)c2cncc3ccccc23)C[C@H](C)O1 [Example 152] | 10 to 50 nM |
| CNc1cncc(C(=O)N2C[C@H](Nc3c(C(=O)N4CCN(CCOC)CC4)cc(Br)cc3[N+](=O)[O-])C3(CC3)C2)c1 [Example 153] | 10 to 50 nM |
| Cc1cc(C(=O)N2CC(Nc3c(C(=O)N4CCC5(CCC5)CC4)cc(Br)cc3[N+](=O)[O-])C(F)(F)C2)cc(=O)[nH]1 (centres unmarked) [Example 154] | 50 to 100 nM |
| Cc1cc(C(=O)N2CC(Nc3c(C(=O)N4CCC(C)(C)CC4)cc(Br)cc3[N+](=O)[O-])C(F)(F)C2)cc(=O)[nH]1 (centres unmarked) [Example 155] | 50 to 100 nM |
| Cc1cc(C(=O)N2CC(Nc3c(C(=O)N4CCC5(CCCC5)CC4)cc(Br)cc3[N+](=O)[O-])C(F)(F)C2)cc(=O)[nH]1 (centres unmarked) [Example 156] | 10 to 50 nM |
| Cc1cc(C(=O)N2CC(Nc3c(C(=O)N4CCN(CC(F)(F)F)CC4)cc(Br)cc3[N+](=O)[O-])C(F)(F)C2)cc(=O)[nH]1 (centres unmarked) [Example 157] | 50 to 100 nM |
| O=C1C[C@H](C(=O)N2CCC[C@@H](Nc3c(C(=O)N4CCC5(CCCCC5)CC4)cc(Br)cc3[N+](=O)[O-])C2)CCN1 [Example 158] | 10 to 50 nM |
| Cc1cc(C(=O)N2CCC[C@@H](Nc3c(C(=O)N4CC(O)CC(Cl)C4)cc(Br)cc3[N+](=O)[O-])C2)cc(=O)[nH]1 (some centres unmarked) [Example 159] | < 10 nM |
| Cc1cc(C(=O)N2CC(Nc3c(C(=O)N4CCC5(CCCCC5)CC4)cc(Br)cc3[N+](=O)[O-])C(F)(F)C2)cc(=O)[nH]1 (centres unmarked) [Example 160] | 10 to 50 nM |
| CNc1cncc(C(=O)N2CC(Nc3c(C(=O)N4C[C@@H](C)O[C@@H](C)C4)cc(Br)cc3[N+](=O)[O-])C(F)(F)C2)c1 (some centres unmarked) [Example 161] | 10 to 50 nM |
| CNc1cncc(C(=O)N2C[C@H](Nc3c(C(=O)N4C[C@@H](C)O[C@@H](C)C4)cc(Br)cc3[N+](=O)[O-])C(C)(C)C2)c1 [Example 162] | 10 to 50 nM |
| CC(C)(C)C1CCN(C(=O)c2cc(Br)cc([N+](=O)[O-])c2N[C@@H]2CCCN(C(=O)[C@@H]3CCNC(=O)C3)C2)CC1 [Example 163] | 10 to 50 nM |
| C[C@@H]1CN(C(=O)c2cc(Br)cc([N+](=O)[O-])c2NC2CN(C(=O)c3cncc(I)c3)CC2(F)F)C[C@H](C)O1 (some centres unmarked) [Example 164] | 10 to 50 nM |
| O=C(c1cncc(I)c1)N1CC(Nc2c(C(=O)N3CCCCC3)cc(Br)cc2[N+](=O)[O-])C(F)(F)C1 (centres unmarked) [Example 165] | 10 to 50 nM |
| CNc1cncc(C(=O)N2CC(Nc3c(C(=O)N4CCC(C)(C)CC4)cc(Br)cc3[N+](=O)[O-])C(F)(F)C2)c1 (centres unmarked) [Example 166] | 10 to 50 nM |
| O=C(c1cncc(I)c1)N1CC(Nc2c(C(=O)N3CCOCC3)cc(Br)cc2[N+](=O)[O-])C(F)(F)C1 (centres unmarked) [Example 167] | 10 to 50 nM |
| CNc1cncc(C(=O)N2C[C@H](Nc3c(C(=O)N4CCCCC4)cc(Br)cc3[N+](=O)[O-])C(F)(F)C2)c1 [Example 168] | 10 to 50 nM |
| CC1(O)CCN(C(=O)c2cc(Br)cc(C(F)(F)F)c2N[C@@H]2CCCC[C@@H]2NC(=O)c2cncc3cc(Cl)ccc23)CC1 [Example 169] | 10 to 50 nM |
| CNc1cncc(C(=O)N2CC(Nc3c(C(=O)N4CCN(CC5CC5)CC4)cc(Br)cc3[N+](=O)[O-])C(F)(F)C2)c1 (centres unmarked) [Example 170] | 10 to 50 nM |
| CNc1cncc(C(=O)N2CC(Nc3c(C(=O)N4CCC5(CCCCC5)CC4)cc(Br)cc3[N+](=O)[O-])C(C)(C)C2)c1 (centres unmarked) [Example 171] | 10 to 50 nM |

| SMILES | IC50 |
| --- | --- |
| CNc1cncc(C(=O)N2CC(Nc3c(C(=O)N4CCN(C5CCCCC5)CC4)cc(Br)cc3[N+](=O)[O-])C(F)(F)C2)c1 (centres unmarked) [Example 172] | 10 to 50 nM |
| CNc1cncc(C(=O)N2CC(Nc3c(C(=O)N4CCC[C@H](C)C4)cc(Br)cc3[N+](=O)[O-])C(C)(C)C2)c1 (some centres unmarked) [Example 173] | 10 to 50 nM |
| CNc1cncc(C(=O)N2CC(Nc3c(C(=O)N4CCC[C@@H](C)C4)cc(Br)cc3[N+](=O)[O-])C(C)(C)C2)c1 (some centres unmarked) [Example 174] | 10 to 50 nM |
| CNc1cncc(C(=O)N2CC(Nc3c(C(=O)N4CCC(C)(C)CC4)cc(Br)cc3[N+](=O)[O-])C(C)(C)C2)c1 (centres unmarked) [Example 175] | 10 to 50 nM |
| CNc1cncc(C(=O)N2CC(Nc3c(C(=O)N4CCC5(CCCC5)CC4)cc(Br)cc3[N+](=O)[O-])C(C)(C)C2)c1 (centres unmarked) [Example 176] | 10 to 50 nM |
| CNc1cncc(C(=O)N2CC(Nc3c(C(=O)N4CCC5(CCC5)CC4)cc(Br)cc3[N+](=O)[O-])C(C)(C)C2)c1 (centres unmarked) [Example 177] | 10 to 50 nM |
| CNc1cncc(C(=O)N2CC(Nc3c(C(=O)N4C[C@@H](C)N(CCOC)[C@@H](C)C4)cc(Br)cc3[N+](=O)[O-])C(F)(F)C2)c1 (some centres unmarked) [Example 178] | 50 to 100 nM |
| CC1CC(C(=O)N2CCC[C@@H](Nc3c(C(=O)N4C[C@@H](C)O[C@@H](C)C4)cc(Br)cc3[N+](=O)[O-])C2)CC(=O)N1 (some centres unmarked) [Example 179] | 50 to 100 nM |
| CNc1cncc(C(=O)N2CC(Nc3c(C(=O)N4C[C@H](C)C[C@H](C)C4)cc(Br)cc3[N+](=O)[O-])C(C)(C)C2)c1 (some centres unmarked) [Example 180] | 50 to 100 nM |
| COCCN1CCN(C(=O)c2cc(Br)cc([N+](=O)[O-])c2NC2CN(C(=O)c3cncc(I)c3)CC2(F)F)CC1 (centres unmarked) [Example 181] | 10 to 50 nM |
| CNc1cncc(C(=O)N2C[C@H](Nc3c(C(=O)N4C[C@@H](C)O[C@@H](C)C4)cc(Br)cc3[N+](=O)[O-])C(F)(F)C2)c1 [Example 182] | 10 to 50 nM |
| O=C(c1cncc(Br)c1)N1C[C@H](Nc2c(C(=O)N3CCC(F)(F)CC3)cc(Br)cc2[N+](=O)[O-])C(F)(F)C1 [Example 183] | 10 to 50 nM |
| O=C(N[C@H]1CCOC[C@H]1Nc1c(C(=O)N2CCCCC2)cc(Br)cc1[N+](=O)[O-])c1cncc2cc(Cl)ccc12 [Example 184] | < 10 nM |
| O=C(N[C@H]1CCOC[C@H]1Nc1c(C(=O)N2CCC(F)(F)CC2)cc(Br)cc1[N+](=O)[O-])c1cncc2cc(Cl)ccc12 [Example 185] | 10 to 50 nM |
| CNc1cncc(C(=O)N2CC(Nc3c(C(=O)N4CCCCC4)cc(Br)cc3[N+](=O)[O-])C(C)(C)C2)c1 (centres unmarked) [Example 186] | 10 to 50 nM |
| CNc1cncc(C(=O)N2C[C@H](Nc3c(C(=O)N4C[C@@H](C)O[C@H](C)C4)cc(Br)cc3[N+](=O)[O-])C(C)(C)C2)c1 [Example 187] | 10 to 50 nM |
| CNc1cncc(C(=O)N2C[C@H](Nc3c(C(=O)N4C[C@H](C)O[C@@H](C)C4)cc(Br)cc3[N+](=O)[O-])C(C)(C)C2)c1 [Example 189] | 10 to 50 nM |
| COCCN1CCN(C(=O)c2cc(Br)cc([N+](=O)[O-])c2N[C@H]2CN(C(=O)c3cncc(I)c3)CC2(C)C)CC1 [Example 190] | 10 to 50 nM |
| CNc1cncc(C(=O)N2C[C@H](Nc3c(C(=O)N4CCN(CCOC)CC4)cc(Br)cc3[N+](=O)[O-])C(C)(C)C2)c1 [Example 191] | 10 to 50 nM |
| O=C(c1cncc(I)c1)N1C[C@H](Nc2c(C(=O)N3CCC(F)(F)CC3)cc(Br)cc2[N+](=O)[O-])C(F)(F)C1 [Example 192] | 10 to 50 nM |

| SMILES | IC50 |
| --- | --- |
| O=C(N[C@H]1COCC[C@H]1Nc1c(C(=O)N2CCCCC2)cc(Br)cc1[N+](=O)[O-])c1cncc2cc(Cl)ccc12 [Example 193] | 10 to 50 nM |
| O=C(N[C@H]1COCC[C@H]1Nc1c(C(=O)N2CCCCC2)cc(Br)cc1[N+](=O)[O-])c1cncc2ccccc12 [Example 194] | 10 to 50 nM |
| COCCN1[C@H](C)CN(C(=O)c2cc(Br)cc([N+](=O)[O-])c2N[C@@H]2COCC[C@@H]2NC(=O)c2cncc3ccccc23)C[C@@H]1C [Example 195] | 10 to 50 nM |
| CNc1cncc(C(=O)N[C@H]2CCCC[C@H]2Nc2c(C(=O)N3CCCCC3)cc(Br)cc2[N+](=O)[O-])c1 [Example 196] | 10 to 50 nM |
| O=C(c1cncc(Br)c1)N1C[C@H](Nc2c(C(=O)N3CCCCC3)cc(Br)cc2[N+](=O)[O-])C(F)(F)C1 [Example 197] | 10 to 50 nM |
| CNc1cncc(C(=O)N[C@H]2CCCC[C@H]2Nc2c(C(=O)N3C[C@@H](C)O[C@@H](C)C3)cc(Br)cc2[N+](=O)[O-])c1 [Example 198] | 10 to 50 nM |
| CNc1cncc(C(=O)N2C[C@H](Nc3c(C(=O)N4C[C@@H](C)O[C@H](C)C4)cc(Br)cc3[N+](=O)[O-])C(F)(F)C2)c1 [Example 199] | 50 to 100 nM |
| CNc1cncc(C(=O)N2CCC[C@@H](Nc3c(C(=O)N4CCOCC4)cc(Br)cc3[N+](=O)[O-])C2)c1 [Example 200] | 10 to 50 nM |
| CNc1cncc(C(=O)N[C@H]2CCOC[C@H]2Nc2c(C(=O)N3CCCCC3)cc(Br)cc2[N+](=O)[O-])c1 [Example 201] | 10 to 50 nM |
| CNc1cncc(C(=O)N2C[C@H](Nc3c(C(=O)N4C[C@H](C)C[C@@H](C)C4)cc(Br)cc3[N+](=O)[O-])C(F)(F)C2)c1 [Example 202] | 10 to 50 nM |
| C[C@@H]1CN(C(=O)c2cc(Br)cc([N+](=O)[O-])c2N[C@H]2CN(C(=O)c3cncc(Br)c3)CC2(F)F)C[C@H](C)O1 [Example 203] | 10 to 50 nM |
| O=C1CC(C(=O)N2CCC[C@@H](Nc3c(C(=O)N4CCCCC4)cc(Br)cc3[N+](=O)[O-])C2)c2ccccc2N1 (some centres unmarked) [Example 204] | 10 to 50 nM |
| O=C(N[C@H]1CCOC[C@H]1Nc1c(C(=O)N2CCCCC2)cc(Br)cc1[N+](=O)[O-])c1cncc2ccccc12 [Example 205] | < 10 nM |
| O=C(N[C@H]1COCC[C@H]1Nc1c(C(=O)N2CCC(F)(F)CC2)cc(Br)cc1[N+](=O)[O-])c1cncc2cc(Cl)ccc12 [Example 206] | 50 to 100 nM |
| O=C(N[C@H]1CCCC[C@H]1Nc1c(C(=O)N2C[C@@H](O)C[C@@H](NC(=O)C(F)(F)F)C2)cc(Br)cc1C(F)(F)F)c1cncc2cc(Cl)ccc12 [Example 207] | 10 to 50 nM |
| COCCN1CCN(C(=O)c2cc(Br)cc([N+](=O)[O-])c2N[C@H]2CN(C(=O)c3cncc(I)c3)CC2(F)F)CC1 [Example 208] | 10 to 50 nM |
| O=C(c1cncc(I)c1)N1C[C@H](Nc2c(C(=O)N3CCCCC3)cc(Br)cc2[N+](=O)[O-])C(F)(F)C1 [Example 209] | 10 to 50 nM |
| C[C@@H]1CN(C(=O)c2cc(Br)cc(C(F)(F)F)c2N[C@@H]2CCOC[C@@H]2NC(=O)c2cncc3ccccc23)C[C@H](C)O1 [Example 210] | 10 to 50 nM |
| COCCN1[C@H](C)CN(C(=O)c2cc(Br)cc([N+](=O)[O-])c2N[C@@H]2CCOC[C@@H]2NC(=O)c2cncc3ccccc23)C[C@@H]1C [Example 211] | 10 to 50 nM |
